Test results reported in article PMC7113582, “Peptide Self-Assembly Is Linked to Antibacterial, but Not Antifungal, Activity of Histatin 5 Derivatives” (mSphere, 2020).

Key:
[1] = Self-assembly observed by transmission electron microscopy; format: physicochemical; conditions: 1 mg/ml in water, heated 50 min at 90°C, cooled gradually to 25°C overnight; negative stain TEM
Description: Lyophilized powders of each of the peptides (Genscript Biotech, USA) were dissolved in ultrapure water (BioInd, Israel) to a concentration of 1 mg/ml and heated for 50 min at 90°C, allowing the peptides to reach the monomeric state, and were then allowed to cool gradually to 25°C overnight. This treatment facilitated the self-assembly and nanostructure formation of L7F but not dhvar2.
TEM imaging was performed by applying 10-μl samples to 400-mesh copper grids covered by a carbon-stabilized Formvar film (SPI, West Chester, PA, USA). The samples were allowed to adsorb for 2 min before excess fluid was blotted off. Negative staining was then achieved by depositing 10 μl of 2% uranyl acetate on the grid for 2 min before blotting off excess fluid. Micrographs were obtained using a Tecnai 12 electron microscope (FEI, Tokyo, Japan) operating at 120 kV.

[2] = system: Candida albicans (SC5341); experiment: FITC uptake assay (membrane permeabilization); format: cell-based; conditions: C. albicans 2 × 10^7 cells per ml, 10 mM sodium phosphate buffer pH 7.4, 250 μg/ml peptide, 6 h at 30°C; no-peptide control 1%
Description: This assay was adapted from a previously reported method ([53]). Candida albicans (SC5341) cells were suspended (2 × 10^7 cells per ml) in 10 mM sodium phosphate buffer (pH 7.4) and treated with each of the peptides for 6 h at 30°C. Samples were then incubated with 6 μg/ml FITC (the stock solution is 10 mg/ml in acetone) plus 10 mM sodium phosphate buffer at 30°C for 30 min. A 10-μl volume of each sample was plated on an individual glass slide, and the slides were then washed with 10 mM sodium phosphate buffer thrice and examined using an Eclipse E600 fluorescence microscope (Nikon, Japan). The results presented are representative of three independent experiments.

S. epidermidis = experiment: Bacterial kinetic growth inhibition analysis, S. epidermidis; format: cell-based, Staphylococcus epidermidis
[3] = system: E. coli bacteria (ATCC 25922); experiment: Bacterial kinetic growth inhibition analysis, E. coli; format: cell-based, Escherichia coli
Description: Each of the peptides was diluted by serial 2-fold dilutions in M9 minimal media in Corning (3879) 96-well plates (Sigma-Aldrich, Israel). E. coli bacteria (ATCC 25922) were grown overnight in M9 minimal media and diluted 1,000-fold in M9 media and grown for 5 h at 37°C. In Corning (3596) 96-well plates, 75-μl volumes of the serial 2-fold dilutions of each test compound were added to 75 μl of growth medium containing bacteria (5 × 10̂^6 CFU/ml). Bacteria and test compounds were incubated overnight at 37°C, and kinetic growth inhibition was determined by measurements of optical density at 600 nm using a Biotek Synergy HT microplate reader.

[4] = Lipid/PDA vesicle fluorescent chromatic response, DOPC-containing model membrane; conditions: DOPC/DMPG/ErgS/PDA SUVs; peptide 1 mg/ml stock, Tris-base buffer pH 8.0, 27°C, %FCR
Description: (§1) Vesicles containing the diacetylene monomer 10,12-tricosadiynoic acid (TRCDA) and the lipid and ergosterol components DOPC/DMPG/ErgS/PDA and DOPE/DMPG/ErgS/PDA (1:0.6:0.4:3) were dissolved in chloroform/ethanol (1:1) and dried together in vacuo to reach a constant weight, followed by addition of deionized water to reach a final concentration of 1 mM, and were subsequently subjected to probe sonication at 40 W at 70°C for 3 min. The vesicle solution was subsequently cooled at room temperature and kept at 4°C overnight. The solution was then irradiated at 254 nm for 30s, resulting in intense blue color appearance due to polymerization of the diacethylene units.
(§2) Fluorescence was measured on a Fluscan Ascent microplate reader using a 96-well microplate (Grainer), excitation at 485 nm and emission at 555 nm, and long-pass (LP) filters with normal slits. The background fluorescence from the vesicles alone was negligible. Samples were prepared for fluorescence measurements by adding 30 μl of each of the peptides at 1 mg/ml to 30 μl of lipid/PDA vesicles followed by addition of 30 μl 50 mM Tris-base buffer (pH = 8.0). The samples were incubated at 27°C during the measurements. […]

[5] = Lipid/PDA vesicle fluorescent chromatic response, DOPE-containing model membrane; conditions: DOPE/DMPG/ErgS/PDA SUVs; peptide 1 mg/ml stock, Tris-base buffer pH 8.0, 27°C, %FCR
Description: as §1, §2

[6] = kinetic growth inhibition, OD600

Sequence	self-assembly / morphology of assemblies (TEM) [1]	FITC positive fluorescence (membrane permeabilization) [2] [%]	antibacterial activity, fold more active than dhvar2 (S. epidermidis; [6]) [fold]	peptide concentration that completely inhibited growth (S. epidermidis; serial 2-fold dilutions, OD600, representative of three experiments) [µg/mL]	antibacterial activity, fold more active than dhvar2 [3, 6] [fold]	peptide concentration that completely inhibited growth ([3]; serial 2-fold dilutions, 37°C, OD600, representative of three experiments) [µg/mL]	colorimetric response, fold lower than that to L7F [4] [fold]	fluorescent chromatic response, fold lower than that to L7F [5] [fold]
KRLFKEFLFSLRKY [L7F, single-amino-acid mutation L7F of dhvar2 (…), self-assembling derivative]	long, unbranched nanoassemblies	95	2	250	4	125		
KRLFKELLFSLRKY [dhvar2, well-characterized histatin 5 derivative, …, reference compound]	no ordered assemblies	95					2	2
